{"source": "PubChem BioAssay (NCI)", "test_in_all_cases": "inhibition of tumour cell growth, NCI panel, 384-well format", "key": {"[1]": {"test_system": "NCI-H226 lung"}, "[2]": {"test_system": "SNB-19 CNS"}, "[3]": {"test_system": "A549 NSCLC"}, "[4]": {"test_system": "T-47D breast"}, "[5]": {"test_system": "MDA-MB-435 melanoma"}, "[6]": {"test_system": "HCT-116 colon"}, "[7]": {"test_system": "TK-10 renal"}, "[8]": {"test_system": "NCI-H322M lung"}, "[9]": {"test_system": "MCF7 breast"}, "[10]": {"test_system": "SF-268 CNS"}, "[11]": {"test_system": "BT-549 breast"}, "[12]": {"test_system": "OVCAR-5 ovarian"}, "[13]": {"test_system": "RXF 393 renal"}, "[14]": {"test_system": "HS 578T breast"}, "[15]": {"test_system": "NCI-H460 NSCLC"}, "[16]": {"test_system": "HT29 colon"}, "[17]": {"test_system": "HOP-92 NSCLC"}, "[18]": {"test_system": "A498 renal"}, "[19]": {"test_system": "RPMI-8226 leukemia"}, "[20]": {"test_system": "SF-295 CNS"}, "[21]": {"test_system": "M14 melanoma"}, "[22]": {"test_system": "SNB-75 CNS"}, "[23]": {"test_system": "EKVX NSCLC"}, "[24]": {"test_system": "KM12 colon"}, "[25]": {"test_system": "MALME-3M melanoma"}, "[26]": {"test_system": "CAKI-1 renal"}, "[27]": {"test_system": "SF-539 CNS"}, "[28]": {"test_system": "HL-60(TB) leukemia"}, "[29]": {"test_system": "MOLT-4 leukemia"}, "[30]": {"test_system": "HOP-62 NSCLC"}, "[31]": {"test_system": "NCI-H522 lung"}, "[32]": {"test_system": "OVCAR-8 ovarian"}, "[33]": {"test_system": "SK-MEL-28 melanoma"}, "[34]": {"test_system": "SR leukemia"}, "[35]": {"test_system": "U251 glioblastoma"}, "[36]": {"test_system": "IGROV1 ovarian"}, "[37]": {"test_system": "COLO 205 colon"}, "[38]": {"test_system": "NCI-H23 lung"}, "[39]": {"test_system": "LOX IMVI melanoma"}, "[40]": {"test_system": "NCI/ADR-RES ovarian"}, "[41]": {"test_system": "HCC-2998 colon"}, "[42]": {"test_system": "MDA-MB-468 breast"}, "[43]": {"test_system": "HCT-15 colon"}, "[44]": {"test_system": "PC-3 prostate"}, "[45]": {"test_system": "OVCAR-4 ovarian"}, "[46]": {"test_system": "SK-MEL-5 melanoma"}, "[47]": {"test_system": "MDA-MB-231 breast"}, "[48]": {"test_system": "ACHN renal"}, "[49]": {"test_system": "SK-OV-3 ovarian"}, "[50]": {"test_system": "OVCAR-3 ovarian"}, "[51]": {"test_system": "DU-145 prostate"}, "[52]": {"test_system": "SN12C renal"}}, "note": "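GI50 marks 50% less growth. TGI marks complete inhibition of growth.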"}
{"compound": "O=C(/C=C/c1cccnc1)NCCCCC1CCN(C(=O)c2ccccc2)CC1", "values": [{"measurement": "GI50", "setting": "[1]", "result": 60.2, "unit": "nM"}, {"measurement": "TGI", "setting": "[1]", "result": "> 100000", "unit": "nM"}, {"measurement": "GI50", "setting": "[2]", "result": "< 10", "unit": "nM"}, {"measurement": "TGI", "setting": "[2]", "result": "< 10", "unit": "nM"}, {"measurement": "GI50", "setting": "[3]", "result": "< 10", "unit": "nM"}, {"measurement": "TGI", "setting": "[3]", "result": 10.8, "unit": "nM"}, {"measurement": "GI50", "setting": "[4]", "result": "< 10", "unit": "nM"}, {"measurement": "TGI", "setting": "[4]", "result": "< 10", "unit": "nM"}, {"measurement": "GI50", "setting": "[5]", "result": "< 10", "unit": "nM"}, {"measurement": "TGI", "setting": "[5]", "result": "< 10", "unit": "nM"}, {"measurement": "GI50", "setting": "[6]", "result": "< 10", "unit": "nM"}, {"measurement": "TGI", "setting": "[6]", "result": "< 10", "unit": "nM"}, {"measurement": "GI50", "setting": "[7]", "result": "< 10", "unit": "nM"}, {"measurement": "TGI", "setting": "[7]", "result": "< 10", "unit": "nM"}, {"measurement": "GI50", "setting": "[8]", "result": "< 10", "unit": "nM"}, {"measurement": "TGI", "setting": "[8]", "result": "< 10", "unit": "nM"}, {"measurement": "GI50", "setting": "[9]", "result": "< 10", "unit": "nM"}, {"measurement": "TGI", "setting": "[9]", "result": "< 10", "unit": "nM"}, {"measurement": "GI50", "setting": "[10]", "result": "< 10", "unit": "nM"}, {"measurement": "TGI", "setting": "[10]", "result": "< 10", "unit": "nM"}, {"measurement": "GI50", "setting": "[11]", "result": "< 10", "unit": "nM"}, {"measurement": "TGI", "setting": "[11]", "result": "< 10", "unit": "nM"}, {"measurement": "GI50", "setting": "[12]", "result": "< 10", "unit": "nM"}, {"measurement": "TGI", "setting": "[12]", "result": "< 10", "unit": "nM"}, {"measurement": "GI50", "setting": "[13]", "result": "< 10", "unit": "nM"}, {"measurement": "TGI", "setting": "[13]", "result": "< 10", "unit": "nM"}, {"measurement": "GI50", "setting": "[14]", "result": "< 10", "unit": "nM"}, {"measurement": "TGI", "setting": "[14]", "result": "< 10", "unit": "nM"}, {"measurement": "GI50", "setting": "[15]", "result": "< 10", "unit": "nM"}, {"measurement": "TGI", "setting": "[15]", "result": 11.7, "unit": "nM"}, {"measurement": "GI50", "setting": "[16]", "result": "< 10", "unit": "nM"}, {"measurement": "TGI", "setting": "[16]", "result": "< 10", "unit": "nM"}, {"measurement": "GI50", "setting": "[17]", "result": "< 10", "unit": "nM"}, {"measurement": "TGI", "setting": "[17]", "result": 24, "unit": "nM"}, {"measurement": "GI50", "setting": "[18]", "result": 16.9, "unit": "nM"}, {"measurement": "TGI", "setting": "[18]", "result": 67.9, "unit": "nM"}, {"measurement": "GI50", "setting": "[19]", "result": "< 10", "unit": "nM"}, {"measurement": "TGI", "setting": "[19]", "result": "< 10", "unit": "nM"}, {"measurement": "GI50", "setting": "[20]", "result": "< 10", "unit": "nM"}, {"measurement": "TGI", "setting": "[20]", "result": "< 10", "unit": "nM"}, {"measurement": "GI50", "setting": "[21]", "result": "< 10", "unit": "nM"}, {"measurement": "TGI", "setting": "[21]", "result": "< 10", "unit": "nM"}, {"measurement": "GI50", "setting": "[22]", "result": "< 10", "unit": "nM"}, {"measurement": "TGI", "setting": "[22]", "result": "< 10", "unit": "nM"}, {"measurement": "GI50", "setting": "[23]", "result": "< 10", "unit": "nM"}, {"measurement": "TGI", "setting": "[23]", "result": "< 10", "unit": "nM"}, {"measurement": "GI50", "setting": "[24]", "result": "< 10", "unit": "nM"}, {"measurement": "TGI", "setting": "[24]", "result": "< 10", "unit": "nM"}, {"measurement": "GI50", "setting": "[25]", "result": "< 10", "unit": "nM"}, {"measurement": "TGI", "setting": "[25]", "result": 13.9, "unit": "nM"}, {"measurement": "GI50", "setting": "[26]", "result": "< 10", "unit": "nM"}, {"measurement": "TGI", "setting": "[26]", "result": "< 10", "unit": "nM"}, {"measurement": "GI50", "setting": "[27]", "result": "< 10", "unit": "nM"}, {"measurement": "TGI", "setting": "[27]", "result": "< 10", "unit": "nM"}, {"measurement": "GI50", "setting": "[28]", "result": "< 10", "unit": "nM"}, {"measurement": "TGI", "setting": "[28]", "result": "< 10", "unit": "nM"}, {"measurement": "GI50", "setting": "[29]", "result": "< 10", "unit": "nM"}, {"measurement": "TGI", "setting": "[29]", "result": "< 10", "unit": "nM"}, {"measurement": "GI50", "setting": "[30]", "result": "< 10", "unit": "nM"}, {"measurement": "TGI", "setting": "[30]", "result": "< 10", "unit": "nM"}, {"measurement": "GI50", "setting": "[31]", "result": "< 10", "unit": "nM"}, {"measurement": "TGI", "setting": "[31]", "result": "< 10", "unit": "nM"}, {"measurement": "GI50", "setting": "[32]", "result": "< 10", "unit": "nM"}, {"measurement": "TGI", "setting": "[32]", "result": "< 10", "unit": "nM"}, {"measurement": "GI50", "setting": "[33]", "result": "< 10", "unit": "nM"}, {"measurement": "TGI", "setting": "[33]", "result": "< 10", "unit": "nM"}, {"measurement": "GI50", "setting": "[34]", "result": "< 10", "unit": "nM"}, {"measurement": "TGI", "setting": "[34]", "result": "< 10", "unit": "nM"}, {"measurement": "GI50", "setting": "[35]", "result": "< 10", "unit": "nM"}, {"measurement": "TGI", "setting": "[35]", "result": "< 10", "unit": "nM"}, {"measurement": "GI50", "setting": "[36]", "result": "< 10", "unit": "nM"}, {"measurement": "TGI", "setting": "[36]", "result": "< 10", "unit": "nM"}, {"measurement": "GI50", "setting": "[37]", "result": "< 10", "unit": "nM"}, {"measurement": "TGI", "setting": "[37]", "result": "< 10", "unit": "nM"}, {"measurement": "GI50", "setting": "[38]", "result": "< 10", "unit": "nM"}, {"measurement": "TGI", "setting": "[38]", "result": "< 10", "unit": "nM"}, {"measurement": "GI50", "setting": "[39]", "result": "< 10", "unit": "nM"}, {"measurement": "TGI", "setting": "[39]", "result": "< 10", "unit": "nM"}, {"measurement": "GI50", "setting": "[40]", "result": "< 10", "unit": "nM"}, {"measurement": "TGI", "setting": "[40]", "result": "< 10", "unit": "nM"}, {"measurement": "GI50", "setting": "[41]", "result": "< 10", "unit": "nM"}, {"measurement": "TGI", "setting": "[41]", "result": "< 10", "unit": "nM"}, {"measurement": "GI50", "setting": "[42]", "result": "< 10", "unit": "nM"}, {"measurement": "TGI", "setting": "[42]", "result": "< 10", "unit": "nM"}, {"measurement": "GI50", "setting": "[43]", "result": "< 10", "unit": "nM"}, {"measurement": "TGI", "setting": "[43]", "result": "< 10", "unit": "nM"}, {"measurement": "GI50", "setting": "[44]", "result": "< 10", "unit": "nM"}, {"measurement": "TGI", "setting": "[44]", "result": "< 10", "unit": "nM"}, {"measurement": "GI50", "setting": "[45]", "result": "< 10", "unit": "nM"}, {"measurement": "TGI", "setting": "[45]", "result": "< 10", "unit": "nM"}, {"measurement": "GI50", "setting": "[46]", "result": "< 10", "unit": "nM"}, {"measurement": "TGI", "setting": "[46]", "result": "< 10", "unit": "nM"}, {"measurement": "GI50", "setting": "[47]", "result": "< 10", "unit": "nM"}, {"measurement": "TGI", "setting": "[47]", "result": "< 10", "unit": "nM"}, {"measurement": "GI50", "setting": "[48]", "result": "< 10", "unit": "nM"}, {"measurement": "TGI", "setting": "[48]", "result": "< 10", "unit": "nM"}, {"measurement": "GI50", "setting": "[49]", "result": "< 10", "unit": "nM"}, {"measurement": "TGI", "setting": "[49]", "result": "< 10", "unit": "nM"}, {"measurement": "GI50", "setting": "[50]", "result": "< 10", "unit": "nM"}, {"measurement": "TGI", "setting": "[50]", "result": "< 10", "unit": "nM"}, {"measurement": "GI50", "setting": "[51]", "result": "< 10", "unit": "nM"}, {"measurement": "TGI", "setting": "[51]", "result": "< 10", "unit": "nM"}, {"measurement": "GI50", "setting": "[52]", "result": "< 10", "unit": "nM"}, {"measurement": "TGI", "setting": "[52]", "result": "< 10", "unit": "nM"}]}
